Assay results from paper PMC8457654 (European Journal of Medicinal Chemistry, 2021).
Where a SMILES comes first, the peptide text is derived from it. [ ]: non-standard residue; d: D form. The star is where a group is joined. AllylGly = C=CC[C@H](N)C(=O)O; Boc = CC(C)(C)OC(=O)*; NHBn = c1ccc(CN*)cc1; NHtBu = CC(C)(C)N*; ClAc = O=C(CCl)*

Experiments:
[1] = biological target: SARS-CoV-2 PL^pro (Severe acute respiratory syndrome coronavirus 2, UniProt P0DTD1); experiment: PL^pro enzymatic assay; type: biochemical
[2] = system: SARS-CoV-2 UC-1075 strain; experiment: SARS-CoV-2 antiviral assay in Vero cells, strain UC-1075; type: cell-based; conditions: Severe acute respiratory syndrome coronavirus 2, UC1075, Vero, 120 h, read-out: Antiviral activity EC50 UC-1075 #1 strain Vero cells
[3] = system: varicella zoster virus; experiment: Antiviral activity over Vero cells infected with VZV; type: cell-based; conditions: data not shown
[4] = system: cytomegalovirus; experiment: Antiviral activity over Vero cells infected with CMV; type: cell-based; conditions: data not shown
[5] = system: SARS-CoV-2 UC-1074 strain; experiment: SARS-CoV-2 antiviral assay in Vero cells, strain UC-1074; type: cell-based; conditions: over two different SARS-CoV-2 strains as worded

| SMILES | IC50 [1] | also measured |
| --- | --- | --- |
| CC(C)(C)NC(=O)[C@H](Cc1c[nH]c2ccccc12)NC(=O)[C@@H]1CCCN1C(=O)OC(C)(C)C [Compound 7, tert-butyl 2-((1-(tert-butylamino)-3-(1H-indol-3-yl)-1-oxopropan-2-yl)carbamoyl)pyrrolidine-1-carboxylate] (Boc-Pro-Trp-NHtBu) | > 25 µM |  |
| CC(C)(C)NC(=O)[C@H](Cc1c[nH]c2ccccc12)NC(=O)[C@H](Cc1ccccc1)NCc1ccc(-c2ccccc2)cc1 [Compound 22, (S)-2-(([1,1′-biphenyl]-4-ylmethyl)amino)-N-((S)-1-(tert-butylamino)-3-(1H-indol-3-yl)-1-oxopropan-2-yl)-3-phenylpropanamide] | > 25 µM |  |
| CC(C)C[C@H](NCc1ccc(-c2ccccc2)cc1)C(=O)N[C@@H](Cc1c[nH]c2ccccc12)C(=O)NC(C)(C)C [Compound 23, 2-(([1,1′-biphenyl]-4-ylmethyl)amino)-N-(1-(tert-butylamino)-3-(1H-indol-3-yl)-1-oxopropan-2-yl)-4-methylpentanamide] | > 25 µM |  |
| C#CC[C@H](NCc1ccc(-c2ccccc2)cc1)C(=O)N[C@@H](Cc1c[nH]c2ccccc12)C(=O)NC(C)(C)C [Compound 24, (S)-2-(([1,1′-biphenyl]-4-ylmethyl)amino)-N-((S)-1-(tert-butylamino)-3-(1H-indol-3-yl)-1-oxopropan-2-yl)pent-4-ynamide] | > 25 µM |  |
| CC(C)C[C@H](NCc1ccc(-c2ccccc2)cc1)C(=O)N[C@@H](Cc1c[nH]c2ccccc12)C(=O)NCc1ccccc1 [Compound 25, (S)-2-(([1,1′-biphenyl]-4-ylmethyl)amino)-N-((S)-1-(benzylamino)-3-(1H-indol-3-yl)-1-oxopropan-2-yl)-4-methylpentanamide] | > 25 µM | EC50 [2]: > 20 µM |
| C=CC[C@H](NCc1ccccc1)C(=O)N[C@@H](Cc1c[nH]c2ccccc12)C(=O)NCc1ccc(-c2ccccc2)cc1 [Compound 26, (S)–N-((S)-1-(([1,1′-biphenyl]-4-ylmethyl)amino)-3-(1H-indol-3-yl)-1-oxopropan-2-yl)-2-(benzylamino)pent-4-enamide] | > 25 µM |  |
| C#CC[C@H](NCc1ccccc1)C(=O)N[C@@H](Cc1c[nH]c2ccccc12)C(=O)NCc1ccc(-c2ccccc2)cc1 [Compound 27, (S)–N-((S)-1-(([1,1′-biphenyl]-4-ylmethyl)amino)-3-(1H-indol-3-yl)-1-oxopropan-2-yl)-2-(benzylamino)pent-4-ynamide] | > 25 µM | Antiviral effect over varicella zoster virus [3]: no effects; Antiviral effect over cytomegalovirus [4]: no effects |
| C#CC[C@H](NCCC)C(=O)N[C@@H](Cc1c[nH]c2ccccc12)C(=O)NCc1ccc(-c2ccccc2)cc1 [Compound 28, (S)–N-((S)-1-(([1,1′-biphenyl]-4-ylmethyl)amino)-3-(1H-indol-3-yl)-1-oxopropan-2-yl)-2-(propylamino)pent-4-ynamide] | > 25 µM |  |
| C=CC[C@H](NC(=O)CCl)C(=O)N[C@@H](Cc1c[nH]c2ccccc12)C(=O)NCc1ccccc1 [Compound 29, (S)–N-((S)-1-(benzylamino)-3-(1H-indol-3-yl)-1-oxopropan-2-yl)-2-(2-chloroacetamido)pent-4-enamide] (ClAc-[AllylGly]-Trp-NHBn) |  | Antiviral effect over varicella zoster virus [3]: no effects; Cellular antiviral potency relative to compound 27 (fold higher) [5]: 28 fold; Antiviral effect over cytomegalovirus [4]: no effects |
| C#CC[C@H](NC(=O)OC(C)(C)C)C(=O)N(Cc1ccccc1)Cc1cn(C)c2ccc(C(=O)OC)cc12 [Compound 35, (S)-Methyl 3-((N-benzyl-2-((tert-butoxycarbonyl)amino)pent-4-ynamido)methyl)-1-methyl-1H-indole-5-carboxylate] | > 25 µM |  |
